For two compounds, Kd, Activity and Ki results are on record in ChEMBL document CHEMBL5096239, “Two Binding Sites of SARS-CoV-2 Macrodomain 3 Probed by Oxaprozin and Meclomen” (J Med Chem, 2022).

Active and inactive are the calls of the source. The calls are words filed in the database; no cut-off is given here.

Experiment [1] has as its target T1, Replicase polyprotein 1ab (Severe acute respiratory syndrome coronavirus 2, UniProt P0DTD1). Nature of the experiment: Binding affinity to 15N-labelled His6-tagged SARS-CoV-2 Mac3 (551 to 675 residues) expressed in Escherichia coli Rosetta assessed as chemical shift perturbations by NMR HSQC spectral analysis.
In experiment [2] the target is Replicase polyprotein 1ab (Severe acute respiratory syndrome coronavirus 2) (UniProt P0DTD1). The experiment in a line: Binding affinity to 15N-labelled His6-tagged SARS-CoV-2 Mac3 (551 to 675 residues) expressed in Escherichia coli Rosetta assessed as chemical shift perturbations at binding site I (M630, Y634, V635, T636, and S660 residues) at ligand to protein molar ratio of 4:1 by NMR HSQC spectral analysis.

Experiment [3] addresses Replicase polyprotein 1a (Severe acute respiratory syndrome-related coronavirus, UniProt P0C6U8). Nature of the experiment: Binding affinity to 15N-labelled His6-tagged SARS-CoV Mac3 (527 to 652 residue) expressed in Escherichia coli Rosetta assessed as chemical shift perturbations by NMR HSQC spectral analysis.
In experiment [4] the target is Replicase polyprotein 1a (Severe acute respiratory syndrome-related coronavirus) (UniProt P0C6U8). Nature of the experiment: Binding affinity to 15N-labelled His6-tagged SARS-CoV Mac3 (527 to 652 residue) expressed in Escherichia coli Rosetta assessed as chemical shift perturbations at binding site 1 (1556, T559, M606, T612, S636, and S637 residues) by NMR HSQC spectral analysis.

The target of experiment [5] is T1, Replicase polyprotein 1ab. The experiment in a line: Displacement of carboxyfluorescein-labelled p53-(dG)14 from SARS-CoV-2 Mac3 by fluorescence polarization analysis.
Experiment [6] concerns the target T1, Replicase polyprotein 1ab. Nature of the experiment: Displacement of carboxyfluorescein-labelled bbc3-(dG)14 from SARS-CoV-2 Mac3 by fluorescence polarization analysis. (Polarisation of emitted light reports the rotation of a fluorescent probe.)
For experiment [7], the target named is Replicase polyprotein 1ab (Severe acute respiratory syndrome coronavirus 2) (UniProt P0DTD1). The experiment in a line: Binding affinity to 15N-labelled His6-tagged SARS-CoV-2 Mac3 (551 to 675 residues) expressed in Escherichia coli Rosetta assessed as chemical shift perturbations at binding site II (Q594, E595, S609, and M630 residues) at ligand to protein molar ratio of 4:1 by NMR HSQC spectral analysis.

In experiment [8] the target is Replicase polyprotein 1a (Severe acute respiratory syndrome-related coronavirus) (UniProt P0C6U8). The experiment in a line: Binding affinity to 15N-labelled His6-tagged SARS-CoV Mac3 (527 to 652 residue) expressed in Escherichia coli Rosetta assessed as chemical shift perturbations at binding site 1 (C550, V553, 1556, and M606 residues) by NMR HSQC spectral analysis.

The term Kd denotes the constant that tells how readily two partners part at equilibrium. Broadly, the Ki is a dissociation constant, usually derived from enzyme kinetics or from competition with a known ligand. `Cc1ccc(Cl)c(Nc2ccccc2C(=O)O)c1Cl` [MECLOFENAMIC ACID]: the Kd in experiment [1] came out at 900 µM; in experiment [3] it was 220 µM. Further, the result in experiment [2] and in experiment [4] was Active. For the same compound, the Ki in experiment [5] stood at 200 µM; in experiment [6], 50 µM.

As to `O=C(O)CCc1nc(-c2ccccc2)c(-c2ccccc2)o1` [OXAPROZIN], the Kd in experiment [1] came out at 1200 µM; in experiment [3], 1000 µM. In addition, the outcome in experiment [7] and in experiment [8] was Active. Also, the Ki in experiment [5] worked out at 900 µM; in experiment [6], 400 µM.
